The results in this text go back to patent US20260297060A1, “COMPOUNDS FOR THE DEGRADATION OF MUTANT BRAF” (C4 THERAPEUTICS, INC., priority 2023, published 2026).

The target of one assay is T1, human bile salt export pump (BSEP) efflux transporter (Homo sapiens, UniProt O95342).
T1 construct: purchased SOLVO Biotechnology Charles River Laboratories, Szeged, Hungary; host or cells: HEK293 (inside out membrane vesicles)
T1 sequence (O95342 whole entry): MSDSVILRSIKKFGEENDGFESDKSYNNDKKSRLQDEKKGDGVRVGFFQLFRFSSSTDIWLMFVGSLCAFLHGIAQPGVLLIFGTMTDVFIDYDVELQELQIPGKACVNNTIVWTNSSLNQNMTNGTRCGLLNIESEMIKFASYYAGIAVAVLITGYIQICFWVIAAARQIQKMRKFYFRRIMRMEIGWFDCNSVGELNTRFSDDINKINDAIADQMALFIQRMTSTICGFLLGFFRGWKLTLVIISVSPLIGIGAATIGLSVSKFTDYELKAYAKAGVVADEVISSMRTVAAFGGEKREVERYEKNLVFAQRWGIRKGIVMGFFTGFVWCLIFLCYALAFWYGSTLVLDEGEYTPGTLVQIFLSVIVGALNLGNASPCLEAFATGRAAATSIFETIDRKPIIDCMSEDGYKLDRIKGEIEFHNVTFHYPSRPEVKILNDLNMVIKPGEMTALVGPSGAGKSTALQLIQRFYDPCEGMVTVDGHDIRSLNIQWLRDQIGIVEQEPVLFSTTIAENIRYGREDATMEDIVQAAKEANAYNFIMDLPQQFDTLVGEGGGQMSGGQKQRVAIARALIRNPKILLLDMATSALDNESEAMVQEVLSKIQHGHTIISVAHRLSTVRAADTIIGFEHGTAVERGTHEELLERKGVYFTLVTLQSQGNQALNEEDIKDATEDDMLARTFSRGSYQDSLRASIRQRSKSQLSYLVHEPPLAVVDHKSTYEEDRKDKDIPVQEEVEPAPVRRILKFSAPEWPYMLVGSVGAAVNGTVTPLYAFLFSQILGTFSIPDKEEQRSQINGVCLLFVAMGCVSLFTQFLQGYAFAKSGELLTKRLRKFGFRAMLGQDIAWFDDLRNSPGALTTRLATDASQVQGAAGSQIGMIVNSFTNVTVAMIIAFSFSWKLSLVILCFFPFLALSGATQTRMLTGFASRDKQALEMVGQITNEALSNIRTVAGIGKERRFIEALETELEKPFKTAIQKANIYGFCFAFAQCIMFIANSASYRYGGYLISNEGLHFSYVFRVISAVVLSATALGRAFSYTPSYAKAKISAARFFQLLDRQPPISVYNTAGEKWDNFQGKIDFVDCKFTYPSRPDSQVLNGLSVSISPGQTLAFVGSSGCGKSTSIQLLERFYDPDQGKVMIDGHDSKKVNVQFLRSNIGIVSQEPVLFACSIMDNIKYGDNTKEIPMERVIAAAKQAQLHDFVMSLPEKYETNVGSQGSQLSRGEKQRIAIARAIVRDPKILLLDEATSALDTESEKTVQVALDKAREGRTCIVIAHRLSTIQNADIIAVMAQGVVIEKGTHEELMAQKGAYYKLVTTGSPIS
Description: BSEP Vesicular Transport Inhibition Assay (IC50 determination). It is filed as biochemical. The settings on record: human BSEP (HEK293) vesicles; taurocholate 0.2 μM; 4 mM Mg-ATP; 10 concentrations, 1 replicate. How it is done: The vesicular transport (VT) assays were performed using inside out membrane vesicles derived from HEK293 cells expressing the specified human bile salt export pump (BSEP) efflux transporter. The membrane vesicles were procured from SOLVO Biotechnology Charles River Laboratories, Szeged, Hungary.
The principle of the assay relies on measuring the accumulation of substrate into inside out vesicles containing the efflux transporter. By utilizing inside out vesicles, the ATP-dependent transport of substrate is directed into the vesicular lumen, where low permeability compounds are then essentially trapped.
For the IC50 screen inhibition assay, 10 concentrations of each compound were tested in the presence of ATP (active transport) in 1 replicate.
The solvent control (DMSO) was tested in the presence of ATP (active transport) and in the presence of AMP (background) in 8 replicates.
Vesicular transport inhibition assays were performed using the specific parameters for each transporter inhibition assay described in Table 53.
Table 54 specifies treatment groups and concentration of compounds, that were examined in the vesicular transport inhibition assay. Detailed data of IC50 screen inhibition assay are shown in Table 55 and detailed data of 1 concentration inhibition assay are shown in Table 56.
The vesicular transport inhibition assay was performed with 4 mM Mg-ATP. For the IC50 screen inhibition assay, 10 concentrations of each compound were tested in the presence of ATP in 1 replicate. For the 1 concentration inhibition assay, 1 concentration of each compound was tested in the presence of ATP (active transport) in 2 replicates. The solvent control (DMSO) was tested in the presence of 4 mM Mg-ATP (active transport) and in the presence of 4 mM AMP (background) in 8 replicates.
The BSEP membrane vesicle suspension was mixed with the ice-cold transport buffer, then the taurocholate probe substrate solution was added (Reaction mixture, 50 μL per well). The compounds were added to the reaction mixture at 1.5-times the final assay concentration. […].
Reaction mixtures and the start reagent (Mg-ATP or AMP in transport buffer) were pre-warmed separately for 15 minutes to reach the incubation temperature of 37° C. […]
The reaction was initiated by the addition of the start reagent (25 μL) to the reaction mixture (diluting the reaction mixture to the final concentration). […] After the 5-minute incubation at 37° C., the reaction was stopped by the addition of 250 μL ice-cold washing mix to each well. […]
The samples were then be transferred to a filter plate and washed with 200 μL cold washing mix5-times to remove any free compounds or taurocholate probe substrate. The amount of taurocholate probe substrate inside the filtered vesicles were determined by liquid scintillation counting. […]
`CCN(C)S(=O)(=O)Nc1ccc(F)c(Oc2ccc3ncc([C@H]4COC5(CCN(C6CCC(c7cc8c(cc7F)c(N7CCC(=O)NC7=O)nn8C)CC6F)CC5)C4)nc3c2)c1C#N` (single isomer, unassigned) [Compound 160]: the BSEP Inhibition/IC50 is 1.58 µM.
For `CCN(C)S(=O)(=O)Nc1ccc(F)c(Oc2ccc3ncn([C@H]4COC5(CCC(N6CCC(c7cc8c(cc7F)c(N7CCC(=O)NC7=O)nn8C)C(F)(F)C6)CC5)C4)c(=O)c3c2)c1C#N` (single isomer, unassigned) [Compound 39], the BSEP Inhibition/IC50 was 1.56 µM.
On to `CCN(C)S(=O)(=O)Nc1ccc(F)c(Oc2ccc3ncn(C4CC5(CCN(C6CCC(c7cc8c(cc7F)c(N7CCC(=O)NC7=O)nn8C)CC6F)CC5)C4)c(=O)c3c2)c1C#N` (single isomer, unassigned) [Compound 86], for which the BSEP Inhibition/IC50 turned out to be 9.88 µM.
Take `CCN(C)S(=O)(=O)Nc1ccc(F)c(Oc2ccc3ncn([C@@H]4CCC5(CCN(C6CCC(c7cc8c(cc7F)c(N7CCC(=O)NC7=O)nn8C)CC6)CC5)C4)c(=O)c3c2)c1C#N` (single isomer, unassigned) [Compound 31]: the BSEP Inhibition/IC50 was 4.23 µM.
With `CCN(C)S(=O)(=O)Nc1ccc(F)c(Oc2ccc3ncn([C@H]4COC5(CCN(C6CCC(c7cc8c(cc7F)c(N7CCC(=O)NC7=O)nn8C)CC6F)CC5)C4)c(=O)c3c2)c1C#N` (single isomer, unassigned) [Compound 28], the BSEP Inhibition/IC50 worked out at 1.96 µM.
`CCN(C)S(=O)(=O)Nc1ccc(F)c(Oc2ccc3ncc(C4CC5(CCN(C6CC7(C6)CN(c6cc8c(cc6F)c(N6CCC(=O)NC6=O)nn8C)C7)CC5)C4)nc3c2)c1C#N` (stereo not shown) [Compound 177, 7-[2-cyano-3-[[ethyl(methyl)sulfamoyl]amino]-6-fluoro-phenoxy]-2-[7-[2-[3-(2,4-dioxohexahydropyrimidin-1-yl)-5-fluoro-1-methyl-indazol-6-yl]-2-azaspiro[3.3]heptan-6-yl]-7-azaspiro[3.5]nonan-2-yl]quinoxaline]: the BSEP Inhibition/IC50 worked out at 7.36 µM.

The assay is the same for the next values; noted with them: human BSEP (HEK293) vesicles; taurocholate 0.2 μM; 4 mM Mg-ATP; 10 concentrations, 1 replicate; in nM.
For `Cn1nc(N2CCC(=O)NC2=O)c2cc(F)c(C3CCC(N4CCC5(CC4)CC(n4cnc6ccc(Oc7c(F)ccc(NS(=O)(=O)C8CCCC8)c7C#N)cc6c4=O)C5)CC3)cc21` (single isomer, unassigned) [Compound 93, N-[2-cyano-3-[3-[7-[4-[3-(2,4-dioxohexahydropyrimidin-1-yl)-5-fluoro-1-methyl-indazol-6-yl]cyclohexyl]-7-azaspiro[3.5]nonan-2-yl]-4-oxo-quinazolin-6-yl]oxy-4-fluoro-phenyl]cyclopentanesulfonamide], the “BSEP Inhibition/IC50” value is reported as greater than 40000.
Regarding `CCN(C)S(=O)(=O)Nc1ccc(F)c(Oc2ccc3ncn([C@H]4COC5(CCN(C6CC7(C6)CN(c6cc8c(cc6F)c(N6CCC(=O)NC6=O)nn8C)C7)CC5)C4)c(=O)c3c2)c1C#N` [Compound 26, (3R)-3-[6-[2-cyano-3-[[ethyl(methyl)sulfamoyl]amino]-6-fluoro-phenoxy]-4-oxo-quinazolin-3-yl]-8-[2-[3-(2,4-dioxohexahydropyrimidin-1-yl)-5-fluoro-1-methyl-indazol-6-yl]-2-azaspiro[3.3]heptan-6-yl]-1-oxa-8-azaspiro[4.5]decane], the “BSEP Inhibition/IC50” value is given as 21770.
The same measure, in the same setting: as for `CC(C)S(=O)(=O)Nc1ccc(F)c(Oc2ccc3ncn(C4CC5(CCN(C6CC7(C6)CN(c6cc8c(cc6F)c(N6CCC(=O)NC6=O)nn8C)C7)CC5)C4)c(=O)c3c2)c1C#N` (stereo not shown) [Compound 273, N-[2-cyano-3-[3-[7-[2-[3-(2,4-dioxohexahydropyrimidin-1-yl)-5-fluoro-1-methyl-indazol-6-yl]-2-azaspiro[3.3]heptan-6-yl]-7-azaspiro[3.5]nonan-2-yl]-4-oxo-quinazolin-6-yl]oxy-4-fluoro-phenyl]propane-2-sulfonamide], the figure is 20580.
Same read-out and setting: as for `CCN(C)S(=O)(=O)Nc1ccc(F)c(Oc2ccc3ncn([C@H]4COC5(CCC(N6CCC(c7cc8c(cc7F)c(N7CCC(=O)NC7=O)nn8C)C(F)(F)C6)CC5)C4)c(=O)c3c2)c1C#N` (single isomer, unassigned) [Compound 38], the figure is 963.6.
